From patent US20120142646A1, “Novel Compounds 621” (priority 2006, published 2012) come the findings set out here.

Counter-ions that a name gives are not always drawn.

For this assay, the target named is T1, Adrenergic β2 (Homo sapiens, UniProt P07550).
T1 construct: Adherent H292 cells were removed from tissue culture flasks; endogenous in cells; host or cells: H292 cells
T1 sequence (P07550 whole entry): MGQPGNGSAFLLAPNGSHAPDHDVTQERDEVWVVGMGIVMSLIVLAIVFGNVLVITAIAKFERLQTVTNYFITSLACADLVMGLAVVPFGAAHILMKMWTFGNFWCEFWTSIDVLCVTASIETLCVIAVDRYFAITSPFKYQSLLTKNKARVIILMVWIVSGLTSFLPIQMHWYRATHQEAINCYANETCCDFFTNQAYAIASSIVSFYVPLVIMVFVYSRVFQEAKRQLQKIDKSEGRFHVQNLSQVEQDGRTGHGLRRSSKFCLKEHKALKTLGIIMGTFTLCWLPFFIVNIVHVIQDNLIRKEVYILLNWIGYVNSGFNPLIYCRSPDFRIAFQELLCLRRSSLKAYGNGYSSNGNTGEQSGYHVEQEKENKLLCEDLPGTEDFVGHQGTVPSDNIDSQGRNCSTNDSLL
As to the kind of experiment: Adrenergic β2 mediated cAMP production in H292 cells (AlphaScreen cAMP detection). On the set-up: key to β2 Int Act: fraction of formoterol maximum activity (formoterol = 1). The following applies: Intrinsic Activity as a fraction relative to the maximum activity determined for formoterol. It is filed as cell-based. As to the method:
Adrenergic β2 Mediated cAMP Production
H292 cells were grown in 225 cm2 flasks incubator at 37° C., 5% CO2 in RPMI medium containing, 10% (v/v) FBS (foetal bovine serum) and 2 mM L-glutamine.
Adherent H292 cells were removed from tissue culture flasks by treatment with Accutase™ cell detachment solution for 15 minutes. Flasks were incubated for 15 minutes in a humidified incubator at 37° C., 5% CO2. Detached cells were re-suspended in RPMI media (containing 10% (v/v) FBS and 2 mM L-glutamine) at 1×10^6 cells per mL. 10000 cells in 100 μL were added to each well of a tissue-culture-treated 96-well plate and the cells incubated overnight in a humidified incubator at 37° C., 5% CO2. The culture media was removed and cells were washed twice with 100 μL assay buffer and replaced with 50 μL assay buffer (HBSS solution containing 10 mM HEPES pH7.4 and 5 mM glucose). Cells were rested at room temperature for 20 minutes after which time 25 μL of rolipram (1.2 mM made up in assay buffer containing 2.4% (v/v) dimethylsulphoxide) was added. Cells were incubated with rolipram for 10 minutes after which time test compounds were added and the cells were incubated for 60 minutes at room temperature. The final rolipram concentration in the assay was 300 μM and final vehicle concentration was 1.6% (v/v) dimethylsulphoxide. The reaction was stopped by removing supernatants, washing once with 100 μL assay buffer and replacing with 50 μL lysis buffer. The cell monolayer was frozen at −80° C. for 30 minutes (or overnight).
AlphaScreen™ cAMP Detection
The concentration of cAMP (cyclic adenosine monophosphate) in the cell lysate was determined using AlphaScreen™ methodology. The frozen cell plate was thawed for 20 minutes on a plate shaker then 10 μL of the cell lysate was transferred to a 96-well white plate. 40 μL of mixed AlphaScreen™ detection beads pre-incubated with biotinylated cAMP, was added to each well and the plate incubated at room temperature for 10 hours in the dark. The AlphaScreen™ signal was measured using an EnVision spectrophotometer (Perkin-Elmer Inc.) with the recommended manufacturer's settings. cAMP concentrations were determined by reference to a calibration curve determined in the same experiment using standard cAMP concentrations. Concentration response curves for agonists were constructed and data was fitted to a four parameter logistic equation to determine both the pEC50 and Intrinsic Activity. Intrinsic Activity was expressed as a fraction relative to the maximum activity determined for formoterol in each experiment.
On the technique in general: cAMP levels reflect the balance of adenylyl cyclase and phosphodiesterase activity.
Turning to `Cc1cc(CCNCCC(=O)N(CCNCCc2ccc(O)c3c2OCC(=O)N3)C2CCCCCC2)ccc1F` [Example 62, N-Cycloheptyl-3-(4-fluoro-3-methylphenethylamino)-N-(2-(2-(5-hydroxy-3-oxo-3,4-dihydro-2H-benzo[b][1,4]oxazin-8-yl)ethylamino)ethyl)propanamide bis(trifluoroacetate)], the “β2 Int Act” value worked out at 0.86.

For the compound `O=C1COc2c(CCNCCN(C(=O)CCNCCc3cc(F)cc(Cl)c3)C3CCCCC3)ccc(O)c2N1` [Example 41, 3-(3-Chloro-5-fluorophenethylamino)-N-cyclohexyl-N-(2-(2-(5-hydroxy-3-oxo-3,4-dihydro-2H-benzo[b][1,4]oxazin-8-yl)ethylamino)ethyl)propanamide bis(trifluoroacetate)], the “β2 Int Act” value is reported as 0.95. With `O=C1COc2c(CCNCCN(C(=O)CCNCCc3cc(F)ccc3F)C3CCCCCC3)ccc(O)c2N1` [Example 64, N-Cycloheptyl-3-(2,5-difluorophenethylamino)-N-(2-(2-(5-hydroxy-3-oxo-3,4-dihydro-2H-benzo[b][1,4]oxazin-8-yl)ethylamino)ethyl)propanamide bis(trifluoroacetate)], the “β2 Int Act” value was determined as 0.88. With `O=C1COc2c(CCNCCN(C(=O)CCOCCc3ccc(F)cc3)C3CCCCC3)ccc(O)c2N1` [Example 75, N-Cyclohexyl-3-(4-fluorophenethoxy)-N-(2-(2-(5-hydroxy-3-oxo-3,4-dihydro-2H-benzo[b][1,4]oxazin-8-yl)ethylamino)ethyl)propanamide trifluoroacetate], the “β2 Int Act” value is 0.96. The result for `CCCC[C@@H](C)N(CCNCCc1ccc(O)c2c1OCC(=O)N2)C(=O)CCNCCc1cc(F)ccc1C` [Example 57, (R)-3-(5-Fluoro-2-methylphenethylamino)-N-(hexan-2-yl)-N-(2-(2-(5-hydroxy-3-oxo-3,4-dihydro-2H-benzo[b][1,4]oxazin-8-yl)ethylamino)ethyl)propanamide bis(trifluoroacetate)] reads 0.91; that for `O=C1COc2c(CCNCCN(C(=O)CCNCCc3ccc(Cl)c(Cl)c3)C3CCCCC3)ccc(O)c2N1` [Example 30, N-Cyclohexyl-3-(3,4-dichlorophenethylamino)-N-(2-(2-(5-hydroxy-3-oxo-3,4-dihydro-2H-benzo[b][1,4]oxazin-8-yl)ethylamino)ethyl)propanamide bis(trifluoroacetate)], 0.92; that for `O=C1COc2c(CCNCCN(C(=O)CCNCCc3cc(F)ccc3F)C3CCCCC3)ccc(O)c2N1` [Example 38, N-Cyclohexyl-3-(2,5-difluorophenethylamino)-N-(2-(2-(5-hydroxy-3-oxo-3,4-dihydro-2H-benzo[b][1,4]oxazin-8-yl)ethylamino)ethyl)propanamide bis(trifluoroacetate)], 0.98. The result for `O=C1COc2c(CCNCCN(C(=O)CCOCCc3ccccc3F)C3CCCCC3)ccc(O)c2N1` [Example 76, N-Cyclohexyl-3-(2-fluorophenethoxy)-N-(2-(2-(5-hydroxy-3-oxo-3,4-dihydro-2H-benzo[b][1,4]oxazin-8-yl)ethylamino)ethyl)propanamide trifluoroacetate] reads 1.1. The result for `Cc1cc(CCNCCC(=O)N(CCNCCc2ccc(O)c3c2OCC(=O)N3)C2CCCCC2)ccc1F` [Example 40, N-Cyclohexyl-3-(4-fluoro-3-methylphenethylamino)-N-(2-(2-(5-hydroxy-3-oxo-3,4-dihydro-2H-benzo[b][1,4]oxazin-8-yl)ethylamino)ethyl)propanamide bis(trifluoroacetate)] reads 0.96. For `O=C(CCNCCc1cccc(Cl)c1)N(CCNCCc1ccc(O)c2[nH]c(=O)ccc12)C1CCCCC1` [Example 13, 3-(3-Chlorophenethylamino)-N-cyclohexyl-N-(2-(2-(8-hydroxy-2-oxo-1,2-dihydroquinolin-5-yl)ethylamino)ethyl)propanamide bis(trifluoroacetate)], the “β2 Int Act” value is on record as 0.86. The result for `O=C(CCNCCc1ccc(F)cc1)N(CCNCCc1ccc(O)c2[nH]c(=O)ccc12)C1CCCCCC1` [Example 6, N-Cycloheptyl-3-(4-fluorophenethylamino)-N-(2-(2-(8-hydroxy-2-oxo-1,2-dihydroquinolin-5-yl)ethylamino)ethyl)propanamide bis(trifluoroacetate)] reads 0.65. The result for `O=C(CCNCCc1cccc(-c2ccccc2)c1)N(CCNCCc1ccc(O)c2[nH]c(=O)ccc12)C1CCCCCC1` [Example 12, 3-(2-(Biphenyl-3-yl)ethylamino)-N-cycloheptyl-N-(2-(2-(8-hydroxy-2-oxo-1,2-dihydroquinolin-5-yl)ethylamino)ethyl)propanamide bis(trifluoroacetate)] reads 0.67. The result for `O=C1COc2c(CCNCCN(C(=O)CCNCCc3cccc(F)c3)C3CCCCCC3)ccc(O)c2N1` [Example 69, N-Cycloheptyl-3-(3-fluorophenethylamino)-N-(2-(2-(5-hydroxy-3-oxo-3,4-dihydro-2H-benzo[b][1,4]oxazin-8-yl)ethylamino)ethyl)propanamide bis(trifluoroacetate)] reads 0.88; that for `O=C1COc2c(CCNCCN(C(=O)CCNCCc3cccc(Cl)c3)C3CCCCCC3)ccc(O)c2N1` [Example 68, 3-(3-Chlorophenethylamino)-N-cycloheptyl-N-(2-(2-(5-hydroxy-3-oxo-3,4-dihydro-2H-benzo[b][1,4]oxazin-8-yl)ethylamino)ethyl)propanamide bis(trifluoroacetate)], 0.93; that for `CCCC[C@@H](C)N(CCNCCc1ccc(O)c2c1OCC(=O)N2)C(=O)CCNCCc1ccc(Cl)c(Cl)c1` [Example 55, (R)-3-(3,4-Dichlorophenethylamino)-N-(hexan-2-yl)-N-(2-(2-(5-hydroxy-3-oxo-3,4-dihydro-2H-benzo[b][1,4]oxazin-8-yl)ethylamino)ethyl)propanamide bis(trifluoroacetate)], 0.92.

For `C[C@H](C1CCCCC1)N(CCNCCc1ccc(O)c2c1OCC(=O)N2)C(=O)CCNCCc1ccccc1` [Example 61, (R)—N-(1-Cyclohexylethyl)-N-(2-(2-(5-hydroxy-3-oxo-3,4-dihydro-2H-benzo[b][1,4]oxazin-8-yl)ethylamino)ethyl)-3-(phenethylamino)propanamide bis(trifluoroacetate)], the “β2 Int Act” value came to 0.84.

Consider `O=C1COc2c(CCNCCN(C(=O)CCNCCc3cccc(Cl)c3F)C3CCCCC3)ccc(O)c2N1` [Example 39, 3-(3-Chloro-2-fluorophenethylamino)-N-cyclohexyl-N-(2-(2-(5-hydroxy-3-oxo-3,4-dihydro-2H-benzo[b][1,4]oxazin-8-yl)ethylamino)ethyl)propanamide bis(trifluoroacetate)], for which the “β2 Int Act” value is given as 0.98. In the case of `O=C(CCNCCc1cccc(F)c1)N(CCNCCc1ccc(O)c2[nH]c(=O)ccc12)C1CCCCCC1` [Example 5, N-Cycloheptyl-3-(3-fluorophenethylamino)-N-(2-(2-(8-hydroxy-2-oxo-1,2-dihydroquinolin-5-yl)ethylamino)ethyl)propanamide bis(trifluoroacetate)], the “β2 Int Act” value was 0.82.

In the case of `O=C1COc2c(CCNCCN(C(=O)CCNCCc3ccccc3)C3CCCCCC3)ccc(O)c2N1` [Example 24, N-Cycloheptyl-N-(2-(2-(5-hydroxy-3-oxo-3,4-dihydro-2H-benzo[b][1,4]oxazin-8-yl)ethylamino)ethyl)-3-(phenethylamino)propanamide bis(trifluoroacetate)], the “β2 Int Act” value came out at 0.85.
